Reference: ChEMBL document CHEMBL1134022, “2-Acylimino-3H-thiazoline derivatives: a novel template for platelet GPIIb/IIIa receptor antagonists” (Bioorg Med Chem Lett, 2001)

These compounds were tested against T1, Integrin alpha-IIb/beta-3 (Homo sapiens, UniProt P05106+P08514) (assay: Affinity for purified activated GPIIb/IIIa fibrinogen receptor in ELISA).
Assay type: protein-complex assay

T1 sequence (P05106 27-788 limits assumed): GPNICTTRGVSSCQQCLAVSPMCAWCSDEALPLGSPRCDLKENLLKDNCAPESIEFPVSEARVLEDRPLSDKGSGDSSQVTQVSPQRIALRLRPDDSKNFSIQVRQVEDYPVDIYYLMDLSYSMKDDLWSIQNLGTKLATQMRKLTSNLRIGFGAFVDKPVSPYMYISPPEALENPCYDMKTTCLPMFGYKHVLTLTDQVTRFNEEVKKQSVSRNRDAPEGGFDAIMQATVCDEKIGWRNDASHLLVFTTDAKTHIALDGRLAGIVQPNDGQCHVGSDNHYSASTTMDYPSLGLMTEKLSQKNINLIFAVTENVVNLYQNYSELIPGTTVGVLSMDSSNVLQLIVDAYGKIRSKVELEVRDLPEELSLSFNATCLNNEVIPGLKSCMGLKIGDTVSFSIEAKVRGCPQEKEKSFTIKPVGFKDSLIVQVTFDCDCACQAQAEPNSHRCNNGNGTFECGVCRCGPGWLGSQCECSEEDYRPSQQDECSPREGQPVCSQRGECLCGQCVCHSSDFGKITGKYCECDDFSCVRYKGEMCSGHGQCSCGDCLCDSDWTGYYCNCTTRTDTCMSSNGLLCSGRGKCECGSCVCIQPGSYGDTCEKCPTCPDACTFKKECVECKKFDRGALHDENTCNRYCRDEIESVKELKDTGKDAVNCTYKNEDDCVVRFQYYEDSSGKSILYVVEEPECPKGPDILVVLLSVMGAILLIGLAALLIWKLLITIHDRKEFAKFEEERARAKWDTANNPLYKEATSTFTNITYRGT
T1 sequence (P08514 32-887 limits assumed): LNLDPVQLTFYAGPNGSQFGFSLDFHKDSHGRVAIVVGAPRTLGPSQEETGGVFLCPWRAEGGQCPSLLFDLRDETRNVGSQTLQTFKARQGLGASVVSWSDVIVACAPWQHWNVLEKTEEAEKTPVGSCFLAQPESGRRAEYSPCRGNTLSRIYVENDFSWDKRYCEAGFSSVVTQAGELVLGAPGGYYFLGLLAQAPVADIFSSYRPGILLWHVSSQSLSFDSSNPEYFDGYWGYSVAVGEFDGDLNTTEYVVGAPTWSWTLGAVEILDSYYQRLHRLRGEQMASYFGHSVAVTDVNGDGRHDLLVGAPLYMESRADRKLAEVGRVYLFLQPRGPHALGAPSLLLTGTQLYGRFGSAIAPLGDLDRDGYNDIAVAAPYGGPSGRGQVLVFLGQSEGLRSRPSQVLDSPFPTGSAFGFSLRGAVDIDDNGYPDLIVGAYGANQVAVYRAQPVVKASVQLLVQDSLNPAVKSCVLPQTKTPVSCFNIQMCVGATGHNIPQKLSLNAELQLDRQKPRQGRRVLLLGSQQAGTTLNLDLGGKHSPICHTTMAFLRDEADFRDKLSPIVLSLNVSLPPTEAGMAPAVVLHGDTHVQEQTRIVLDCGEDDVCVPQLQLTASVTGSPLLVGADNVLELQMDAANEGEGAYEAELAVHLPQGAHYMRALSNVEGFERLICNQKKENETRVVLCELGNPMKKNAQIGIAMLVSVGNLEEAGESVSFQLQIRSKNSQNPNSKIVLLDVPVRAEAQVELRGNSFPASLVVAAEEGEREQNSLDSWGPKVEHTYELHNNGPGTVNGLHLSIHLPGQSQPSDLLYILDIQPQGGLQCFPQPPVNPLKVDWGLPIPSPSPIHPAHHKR
T1 sequence (P08514 891-1039 limits assumed): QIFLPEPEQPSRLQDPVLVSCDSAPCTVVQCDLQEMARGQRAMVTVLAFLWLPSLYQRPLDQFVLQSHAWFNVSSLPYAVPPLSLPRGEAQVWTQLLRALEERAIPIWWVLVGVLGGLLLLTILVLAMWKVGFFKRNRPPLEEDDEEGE

IC50 [nM]	SMILES
4.76	Cn1c2c(s/c1=N\C(=O)c1ccc(C(=N)N)cc1)C(=O)N(CCC(=O)O)C2
0.89	Cc1c(C(=O)N(C)CCC(=O)O)s/c(=N\C(=O)c2ccc(C(=N)N)cc2)n1C
0.12	CCn1c(C)c(C(=O)NCCC(=O)O)s/c1=N\C(=O)c1ccc(C(=N)N)cc1
0.57	Cc1nc(NC(=O)c2ccc(C(=N)N)cc2)sc1CCC(=O)O
0.13	CCCCn1c(C)c(C(=O)NCCC(=O)O)s/c1=N\C(=O)c1ccc(C(=N)N)cc1
0.55	N=C(N)c1ccc(C(=O)Nc2cccc(CCC(=O)O)c2)cc1
0.09	Cc1c(C(=O)NCCC(=O)O)s/c(=N\C(=O)c2ccc(C(=N)N)cc2)n1Cc1ccccc1
1	Cc1nc(N(C)C(=O)c2ccc(C(=N)N)cc2)sc1CCC(=O)O

Each compound was assayed against T1, Integrin alpha-IIb/beta-3 (assay: Binding to [125I]- fibrinogen by washed platelet fibrinogen receptor).

IC50 [nM]	SMILES
67.9	Cn1c2c(s/c1=N\C(=O)c1ccc(C(=N)N)cc1)C(=O)N(CCC(=O)O)C2
51.8	Cc1c(C(=O)N(C)CCC(=O)O)s/c(=N\C(=O)c2ccc(C(=N)N)cc2)n1C
60.5	Cc1nc(NC(=O)c2ccc(C(=N)N)cc2)sc1CCC(=O)O
6.26	CCCCn1c(C)c(C(=O)NCCC(=O)O)s/c1=N\C(=O)c1ccc(C(=N)N)cc1
105	N=C(N)c1ccc(C(=O)Nc2cccc(CCC(=O)O)c2)cc1
